Results: ChEMBL document CHEMBL5625206, “Design, synthesis, and evaluation of novel pleuromutilin aryl acrylate derivatives as promising broad-spectrum antibiotics especially for combatting multi-drug resistant gram-negative bacteria” (Eur J Med Chem, 2023)
Values after ≈ are worked out from the molar mass of the structure shown. Active and inactive are the calls of the source. The rule behind the calls is not given here.

What was measured:
Escherichia coli [1] = test: Induction of extracellular electrical conductivity in Escherichia coli ATCC 25922 at MIC incubated for 8 hrs relative to control; assay type: functional
[2] = Volume of distribution at steady state in fasted Sprague-Dawley rat at 1 mg/kg, iv by LC-MS/MS analysis; assay type: ADME, organism-based; conditions: in vivo, read-out: Vdss
Staphylococcus aureus [3] = test: Inhibition of biofilm formation of methicillin-resistant Staphylococcus aureus ATCC 33591 incubated for 24 hrs by crystal violet staining based analysis; assay type: functional, organism-based
Acinetobacter baumannii = test: Antibacterial activity against Acinetobacter baumannii ATCC 19606 assessed as bacterial growth inhibition incubated for 24 hrs by CLSI based broth microdilution method; assay type: functional
Staphylococcus aureus [4] = test: Antibacterial activity against methicillin-resistant Staphylococcus aureus ATCC 33591 infected in neutropenic Kunming mouse model assessed as restoration of infection- induced change in cell morphology in kidney at 20 mg/kg, ip measured after 7 days; assay type: functional, organism-based; conditions: time 7.0 day
[5] = Toxicity in fasted male Sprague-Dawley rat assessed as body weight at 331 mg/kg, IG measured after 14 days (reference value: 311.2 +/- 13.6 g); assay type: organism-based; conditions: in vivo, po, 336 h, time 14 day
[6] = Toxicity in fasted male Sprague-Dawley rat assessed as relative spleen weight ratio at 100 mg/kg, IG measured for 14 days (reference value: 0.246 +/- 0.037); assay type: organism-based; conditions: in vivo, po, 336 h, time 14 day
[7] = Toxicity in fasted female Sprague-Dawley rat assessed as relative liver weight ratio at 148 mg/kg, IG measured for 14 days (reference value: 3.199 +/- 0.062); assay type: organism-based; conditions: in vivo, po, 336 h, time 14 day
Escherichia coli [8] = test: Disruption of cell membrane integrity in Escherichia coli ATCC 25922 assessed as increase in red fluorescence at 1 to 4 times MIC incubated for 2 hrs by MycoLight green JJ98/PI staining based analysis; assay type: functional, organism-based
Staphylococcus aureus [9] = test: Disruption of cell membrane integrity in methicillin-resistant Staphylococcus aureus ATCC 33591 assessed as wrinkled cell surface at MIC incubated for 4 hrs by FESEM analysis; assay type: functional, organism-based
[10] = Toxicity in fasted male Sprague-Dawley rat assessed as body weight at 500 mg/kg, IG measured after 14 days (reference value: 311.2 +/- 13.6 g); assay type: organism-based; conditions: in vivo, po, 336 h, time 14 day
[11] = Toxicity in fasted female Sprague-Dawley rat assessed as relative spleen weight ratio at 224 mg/kg, IG measured for 14 days (reference value: 0.223 +/- 0.019); assay type: organism-based; conditions: in vivo, po, 336 h, time 14 day
[12] = Toxicity in fasted male Sprague-Dawley rat assessed as body weight at 100 mg/kg, IG measured after 7 days (reference value: 260.5 +/- 12.7 g); assay type: organism-based; conditions: in vivo, po, 168 h, time 7 day
Staphylococcus aureus [13] = test: Antibacterial activity against methicillin-resistant Staphylococcus aureus ATCC 33591 infected in neutropenic Kunming mouse model assessed as bacterial load reduction in liver at 10 to 20 mg/kg, ip measured after 2 days; assay type: functional, organism-based; conditions: dose 10-20 mg/kg, time 2.0 day
Staphylococcus aureus [14] = test: Antibacterial activity against methicillin-resistant Staphylococcus aureus ATCC 33591 infected in neutropenic Kunming mouse model assessed as reduction in infection-induced liver damage at 20 mg/kg, ip measured after 7 days; assay type: functional, organism-based; conditions: time 7.0 day
Staphylococcus aureus [15] = test: Induction of cell damage in methicillin-resistant Staphylococcus aureus ATCC 33591 assessed as intracellular pH at 2 times MIC incubated for 30 mins by fluorescence based analysis (reference value: 6.34 +/- 0.10); assay type: functional; conditions: 0.5 h
[16] = Toxicity in fasted female Sprague-Dawley rat assessed as body weight at 331 mg/kg, IG measured after 14 days (reference value: 214.3 +/- 9.8 g); assay type: organism-based; conditions: in vivo, po, 336 h, time 14 day
Escherichia coli [17] = test: Induction of extracellular electrical conductivity in Escherichia coli ATCC 25922 at 2 times MIC incubated for 8 hrs relative to control; assay type: functional
[18] = Toxicity in fasted male Sprague-Dawley rat assessed as relative spleen weight ratio at 148 mg/kg, IG measured for 14 days (reference value: 0.246 +/- 0.037); assay type: organism-based; conditions: in vivo, po, 336 h, time 14 day
[19] = Toxicity in fasted male Sprague-Dawley rat assessed as relative lung weight ratio at 100 mg/kg, IG measured for 14 days (reference value: 0.437 +/- 0.064); assay type: organism-based; conditions: in vivo, po, 336 h, time 14 day
Escherichia coli [20] = test: Antibacterial activity against Escherichia coli ATCC 25922 assessed as bacterial growth inhibition incubated for 24 hrs by CLSI based broth microdilution method; assay type: functional
Staphylococcus aureus [21] = test: Antibacterial activity against methicillin-resistant Staphylococcus aureus 575 clinical isolate assessed as bacterial growth inhibition incubated for 24 hrs by CLSI based broth microdilution method; assay type: functional
[22] = Toxicity in fasted female Sprague-Dawley rat assessed as relative kidney weight ratio at 100 mg/kg, IG measured for 14 days (reference value: 0.802 +/- 0.031); assay type: organism-based; conditions: in vivo, po, 336 h, time 14 day
Staphylococcus aureus [23] = test: Antibacterial activity against methicillin-resistant Staphylococcus aureus ATCC 33591 infected in neutropenic Kunming mouse model assessed as reduction in infection-induced kidney damage at 20 mg/kg, ip measured after 7 days; assay type: functional, organism-based; conditions: time 7.0 day
Staphylococcus aureus [24] = test: Antibacterial activity against methicillin-resistant Staphylococcus aureus ATCC 33591 infected in neutropenic Kunming mouse model assessed as bacterial load reduction in lung at 10 to 20 mg/kg, ip measured after 2 days; assay type: functional, organism-based; conditions: dose 10-20 mg/kg, time 2.0 day
Escherichia coli [25] = test: Induction of cell damage in Escherichia coli ATCC 25922 assessed as decrease in intracellular ATP concentration at 2 times MIC incubated for 30 mins by fluorescence based analysis relative to control; assay type: functional; set-up: scale not given: the % may be the effect or the level left; conditions: 0.5 h
[26] = Toxicity in fasted Sprague-Dawley rat assessed as mortality rate at 148 mg/kg, IG measured for 14 days; assay type: organism-based; conditions: in vivo, po, time 14 day
[27] = Toxicity in fasted female Sprague-Dawley rat assessed as relative lung weight ratio at 331 mg/kg, IG measured for 14 days (reference value: 0.534 +/- 0025); assay type: organism-based; conditions: in vivo, po, 336 h, time 14 day
[28] = Toxicity in fasted male Sprague-Dawley rat assessed as animal growth rate at 100 mg/kg, IG measured for 14 days (reference value: 46.53 +/- 3.19 g); assay type: organism-based; conditions: in vivo, po, 336 h, time 14 day
[29] = Toxicity in Sprague-Dawley rat assessed as abnormal clinical symptoms at 10 to 100 mg/kg, IG measured for 14 days; assay type: organism-based; conditions: in vivo, po, 336 h, dose 10-100 mg/kg, time 14 day
[30] = Toxicity in fasted female Sprague-Dawley rat assessed as relative kidney weight ratio at 148 mg/kg, IG measured for 14 days (reference value: 0.802 +/- 0.031); assay type: organism-based; conditions: in vivo, po, 336 h, time 14 day
[31] = Toxicity in fasted female Sprague-Dawley rat assessed as relative ovary weight ratio at 331 mg/kg, IG measured for 14 days (reference value: 0.061 +/- 0.010); assay type: organism-based; conditions: in vivo, po, 336 h, time 14 day
Staphylococcus aureus [32] = test: Induction of cell damage in methicillin-resistant Staphylococcus aureus ATCC 33591 assessed as decrease in intracellular ATP concentration at 2 times MIC incubated for 30 mins by fluorescence based analysis relative to control; assay type: functional; set-up: scale not given: the % may be the effect or the level left; conditions: 0.5 h
Escherichia coli [33] = test: Inhibition of biofilm formation of Escherichia coli ATCC 25922 at MIC incubated for 24 hrs by crystal violet staining based analysis relative to control; assay type: functional
Staphylococcus aureus [34] = test: Antibacterial activity against Staphylococcus aureus ATCC 29213 assessed as bacterial growth inhibition incubated for 24 hrs by CLSI based broth microdilution method; assay type: functional

C=C[C@]1(C)C[C@@H](OC(=O)COC(=O)/C=C/c2ccc(N(C)C)cc2)[C@]2(C)[C@H](C)CC[C@]3(CCC(=O)[C@H]32)[C@@H](C)[C@@H]1O
Activity (Escherichia coli [1]): 15.45% | Vd [2]: 2 L/kg | inhibition (Staphylococcus aureus [3]): Dose-Dependent Effect | MIC (Acinetobacter baumannii): 32 µg/mL (≈ 58 µM) | Activity (Staphylococcus aureus [4]): Active | Activity [5]: 304.9 g | Ratio [6]: 0.254 | Ratio [7]: 3.193 | Activity (Escherichia coli [8]): Active | Activity (Staphylococcus aureus [9]): Active | Activity [10]: 296.8 g | Ratio [11]: 0.249 | Activity [12]: 265.5 g | Activity (Staphylococcus aureus [13]): Active | Activity (Staphylococcus aureus [14]): Active | pH (Staphylococcus aureus [15]): 2.75 | Activity [16]: 218.7 g | Activity (Escherichia coli [17]): 20.78% | Ratio [18]: 0.227 | Ratio [19]: 0.44 | MIC (Escherichia coli [20]): 16 µg/mL (≈ 29 µM) | MIC (Staphylococcus aureus [21]): 8 µg/mL (≈ 14.5 µM) | Ratio [22]: 0.81 | Activity (Staphylococcus aureus [23]): Active | Activity (Staphylococcus aureus [24]): Active | Activity (Escherichia coli [25]): 67.87% | mortality at 336 h [26]: 0% | Ratio [27]: 0.528 | Activity [28]: 46.18% | Activity [29]: Non-Toxic | Ratio [30]: 0.818 | Ratio [31]: 0.067 | Activity (Staphylococcus aureus [32]): 86.52% | inhibition (INH) (Escherichia coli [33]): 58.1% | MIC (Staphylococcus aureus [34]): 2 µg/mL (≈ 3.63 µM)
